Source: patent publication US12583871B2, “PRMT5 inhibitors” (MERCK SHARP & DOHME LLC, priority 2019, dated 2026)
Read-outs that look alike come from different tables or passages of the source.

Legend:
[1] = target: T1, PRMT5-MEP50 enzyme complex (Homo sapiens, UniProt O14744); assay: PRMT5-MEP50 Enzyme Methylation Assay; assay type: biochemical; settings: recombinant FL-PRMT5-MEP50, biotinylated H4R3(Me1) peptide, 15 μM SAM
T1 construct: 1.25 nM of Full-length (FL)-PRMT5-MEP50 enzyme complex; made in house; host or cells: baculovirus-transfected Sf21 cells
Method: PRMT5-MEP50 Enzyme Methylation Assay
PRMT5-MEP50 biochemical assay is a direct measurement of the methylation activity of the enzyme complex on a short peptide substrate derived from the N-terminus of H4 histone. Methylation experiment was performed with recombinant PRMT5-MEP50 protein complex. The assessment of inhibitory effect of small molecules was measured by the effectiveness of the compounds to inhibit this reaction (EC50).
In this assay, the potency (EC50) of each compound was determined from a twenty-point (1:2 serial dilution; top compound concentration of 100000 nM) titration curve using the following outlined procedure. To each well of a white ProxiPlus 384 well-plate, 100 nL of compound (1% DMSO in final assay volume of 10 μL) was dispensed, followed by the addition of 8 μL of 1× assay buffer (50 mM Bicine pH 8.0, 1 mM DTT, 0.004% Tween20, 0.01% BSA) containing 1.25 nM of Full-length (FL)-PRMT5-MEP50 enzyme complex (recombinant proteins from baculovirus-transfected Sf21 cells: FL-PRMT5; MW=[…] and FL-MEP50; MW=38614) and 1 μL of 150 μM S-(5′-Adenosyl)-L-Methionine Chloride (SAM). Plates were sealed and placed in a 37° C. humidified chamber for a 60 minutes pre-incubation with compound. Subsequently, each reaction was initiated by the addition of 1 μL 1× assay buffer containing 750 nM biotinylated H4R3(Me1) peptide. The final reaction in each well of 10 μL consists of 1.0 nM PRMT5-MEP50, 75 nM biotinylated-peptide, and 15 μM SAM. Methylation reactions were allowed to proceed for 150 minutes in a sealed plate at 37° C. Reactions were immediately quenched by the addition of 1 μL of 5% formic acid. Plates were then frozen and shipped to SAMDI™ Tech Inc. to determine the percent conversion from H4R3(Me1) to H4R3(Me2). Dose-response curves were generated by plotting percent effect (% product conversion; Y-axis) vs. Log 10 compound concentrations (X-axis). EC50 values were determined by non-linear regression according to models for sigmoidal (4 parameters) dose-response curves.

[2] = target: T2, PRMT5 (symmetric dimethylation of arginine (SDMA) of PRMT5 substrates) in MCF-7 cells (Homo sapiens, UniProt O14744); assay: PRMT5 Cell Target Engagement (TE) Assay; assay type: cell-based; settings: 3 days treatment, nuclear SDMA by high content imaging
T2 construct: endogenous in cells; host or cells: MCF-7 cells
Description: PRMT5 Cell Target Engagement (TE) Assay
The PRMT5 TE assay is a biomarker assay for identifying compounds that inhibit symmetric dimethylation of arginine (SDMA) of PRMT5 substrates. The following substrates have been reported for PRMT5: histone H2A and H4 R3, Histone H3 R2, Histone H3 R8, spliceosome Sm proteins, ribosomal protein RPS10, p53, FEN1, nucleoplasmin, nucleolin, EGFR and EBNA. The assay focuses on detecting symmetrically dimethylated nuclear proteins using high content imaging technology. Detection of the expression of symmetrically dimethylated nuclear proteins is through a mixture of primary rabbit monoclonal antibodies to SDMA (CST 13222), which in turn recognized by an Alexafluor 488 dye-conjugated anti-rabbit IgG secondary antibody. The IN Cell Analyzer 2200 or Opera-Phenix measures nuclear Alexafluor 488 fluorescent dye intensity that is directly related to the level of expression of symmetrically dimethylated nuclear proteins at the single cell level. Nuclear AF488 dye intensities are compared to the mean value for DMSO treated cells (MIN) to report percent of inhibition for each compound-treated well.
In this assay, the cell potency (EC50) of each compound was determined from a ten point (1:3 serial dilution; top compound concentration of 10000 nM) titration curve using the following outlined procedure. Each well of a BD falcon collagen coated black/clear bottom 384-well plate was seeded with 4000 MCF-7 cells in 30 μl media and allowed to attach for 5 h. Media is ATCC-formulated Eagle's Minimum Essential Medium, Catalog No. 30-2003. To make the complete growth medium, the following components were added to the base medium: 0.01 mg/mL human recombinant insulin; fetal bovine serum to a final concentration of 10%. Additional 30 μl of media containing 2× compounds were added to each well. Cells were treated for 3 days in 37° C. CO2 incubator. On day 3, cells were fixed with Cytofix, permeablized with 0.4% Triton-X-100/Cytofix, and washed with D-PBS without Ca/Mg. Cells were blocked with Licor Odessey blocking reagent for 1 h at room temperature, followed by incubation with anti-SDMA (1:1000) antibody at 4° C. overnight. 1° antibody was removed, followed by three washings with DPBS without Ca/Mg and 0.05% Tween20. Hoechst (5 μg/mL), Cell Mask deep stain (1:2000) and Alexa488-conjugated goat anti-rabbit IgG (2 μg/mL) was added for 1 h at room temperature. A final washing step (three washes) was performed before sealing plate for imaging on In Cell Analyzer 2200 or Opera-Phenix. Images from analyzer were uploaded to Columbus (at WP or BOS) for image analysis. IC50 values were determined by 4 parameters robust fit of percent fluorescence units vs. (Log10) compound concentrations.

[3] = only EC50 (4 parameters single site sigmoidal model) or first EC50 of 7 parameters biphasic model, read-out: Enzyme Methylation Assay (EC50)
[4] = second EC50 of 7 parameters biphasic model, read-out: Enzyme Methylation Assay (EC50, nM), second EC50

T1 sequence (O14744 whole entry): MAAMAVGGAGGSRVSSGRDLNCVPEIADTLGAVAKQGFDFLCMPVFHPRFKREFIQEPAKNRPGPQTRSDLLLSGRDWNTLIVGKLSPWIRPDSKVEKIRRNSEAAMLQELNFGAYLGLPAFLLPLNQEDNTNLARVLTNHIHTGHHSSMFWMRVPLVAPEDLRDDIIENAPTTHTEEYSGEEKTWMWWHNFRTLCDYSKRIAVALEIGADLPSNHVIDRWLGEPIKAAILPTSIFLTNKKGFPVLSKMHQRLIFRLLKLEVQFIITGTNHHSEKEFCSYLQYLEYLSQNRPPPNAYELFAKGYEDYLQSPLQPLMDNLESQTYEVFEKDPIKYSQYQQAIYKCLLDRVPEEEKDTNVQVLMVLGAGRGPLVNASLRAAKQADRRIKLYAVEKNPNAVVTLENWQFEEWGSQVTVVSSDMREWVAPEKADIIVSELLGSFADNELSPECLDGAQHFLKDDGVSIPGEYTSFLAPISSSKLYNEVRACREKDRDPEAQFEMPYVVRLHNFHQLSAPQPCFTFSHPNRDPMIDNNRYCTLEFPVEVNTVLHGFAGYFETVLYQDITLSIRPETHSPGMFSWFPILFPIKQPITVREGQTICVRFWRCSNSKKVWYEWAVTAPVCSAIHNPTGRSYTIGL
T1 sequence (Q9BQA1 whole entry partner): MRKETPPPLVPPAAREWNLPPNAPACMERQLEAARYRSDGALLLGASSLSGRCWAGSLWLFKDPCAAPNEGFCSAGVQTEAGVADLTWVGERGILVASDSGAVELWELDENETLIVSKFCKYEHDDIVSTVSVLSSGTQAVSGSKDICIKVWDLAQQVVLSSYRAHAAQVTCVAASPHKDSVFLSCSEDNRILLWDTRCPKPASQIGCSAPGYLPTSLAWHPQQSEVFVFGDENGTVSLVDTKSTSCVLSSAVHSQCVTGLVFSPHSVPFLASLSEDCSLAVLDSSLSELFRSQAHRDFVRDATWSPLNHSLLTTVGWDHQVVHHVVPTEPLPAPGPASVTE
T2 sequence (O14744 whole entry): as the sequence (O14744 whole entry) above
T2 sequence (Q9BQA1 whole entry partner): as the sequence (Q9BQA1 whole entry partner) above

Structure (SMILES) | EC50 [1, 3] [nM] | EC50 [1, 4] [nM] | EC50 [2] [nM]
CO[C@@H](C)c1cc(Br)cn2cc(C(=O)N3CC[C@]4(Cc5ccccc5CN4)[C@H](O)C3)nc12 (single isomer, unassigned) [Example 2] | 0.369 | 114 | 2.11
CO[C@H](C)c1cc(Br)cn2cc(C(=O)N3CC[C@]4(Cc5ccccc5CN4)[C@H](O)C3)nc12 (single isomer, unassigned) [Example 3] | 0.581 | – | 1.57
COCc1cc(C(F)(F)F)cn2cc(C(=O)N3CC[C@]4(Cc5ccccc5CN4)[C@H](O)C3)nc12 [Example 1, ((3R,3′R)-3′-hydroxy-1,4-dihydro-1′H,2H-spiro[isoquinoline-3,4′-piperidin]-1′-yl)[8-(methoxymethyl)-6-(trifluoromethyl)imidazo[1,2-a]pyridin-2-yl]methanone] | 0.525 | 224 | 6.23

Other lines, results leading:

EC50 [1, 3] [nM] | EC50 [1, 4] [nM] | EC50 [2] [nM] | Structure (SMILES)
0.652 | 280 | 14 | Cc1nc2nc(C(=O)N3CC[C@]4(Cc5ccccc5CN4)[C@H](O)C3)cn2cc1Br [Example 4, (6-bromo-7-methylimidazo[1,2-a]pyrimidin-2-yl)[(3R,3′R)-3′-hydroxy-1,4-dihydro-1′H,2H-spiro[isoquinoline-3,4′-piperidin]-1′-yl]methanone]
0.216 | 72.4 | 4.42 | O=C(c1cn2cc(C3CC3)cnc2n1)N1CC[C@]2(Cc3ccccc3CN2)[C@H](O)C1 [Example 5, (6-cyclopropylimidazo[1,2-a]pyrimidin-2-yl)[(3R,3′R)-3′-hydroxy-1,4-dihydro-1′H,2H-spiro[isoquinoline-3,4′-piperidin]-1′-yl]methanone]
